We go through twelve molecules from ChEMBL document CHEMBL2062500, “Anti-inflammatory sesquiterpene lactones from the flower of Vernonia cinerea” (Bioorg Med Chem Lett, 2012).

The structures appear in SMILES notation. The source made the active and inactive calls. No cut-off for these calls is given here.

Series [1] relates to RAW264.7. Description: Antiinflammatory activity against LPS-induced NO production in mouse RAW264.7 cells assessed as reduction in nitrite level at 50 uM preincubated for 15 mins prior to LPS treatment by Griess method. The class given is functional. Background: The Griess reaction detects nitrite, a stable product of nitric oxide.
Series [2] can be described thus: Cytotoxicity in mouse RAW264.7 cells assessed as cell survival at 50 uM. It is filed as cell-based. Particulars: read-out: Survival.
Series [3] deals with RAW264.7. Briefly: Antiinflammatory activity against LPS-induced NO production in mouse RAW264.7 cells assessed as reduction in nitrite level preincubated for 15 mins prior to LPS treatment by Griess method. It is filed as functional, cell-based.
Series [4] deals with HEK293. Briefly: Inhibition of TNFalpha-induced NF-kappaB activity expressed in human HEK 293 cells at 50 uM after 6 hrs by luciferase reporter gene assay. It is filed as cell-based.
The nature of series [5]: Cytotoxicity in human HEK293 cells assessed as survival at 50 uM. Particulars: read-out: Survival. It is filed as cell-based.
Series [6] can be described thus: (§1) Inhibition of TNFalpha-induced NF-kappaB activity expressed in human HEK 293 cells after 6 hrs by luciferase reporter gene assay. The class given is cell-based. The conditions noted are these: HEK293, 6 h. For orientation: A reporter such as luciferase makes a cellular process visible.
Series [7] deals with HEK293. Described as §1. It is filed as cell-based.

For orientation: inhibition means the relative decrease from the control value, in per cent. Broadly, the IC50 is the concentration needed to halve the response being measured. As to `CC(=O)OCC1=C2/C(=C\[C@@]3(C)CC[C@](O)(O3)[C@H](C)C[C@@H]2O)OC1=O`, in series [1], the inhibition at 50 µM is 99.3%. In addition, the viability at 50 µM amounted to 18% in series [2] and 55% in series [5]. For the same molecule, the IC50 in series [3] came out at 2.7 µM; in series [6], 10.2 µM. In series [4], the inhibition came to 90.3%.
As for `C/C=C(\C)C(=O)O[C@H]1C[C@@H](C)[C@]2(OC)CC[C@](C)(/C=C3/OC(=O)C(CO)=C31)O2`, the inhibition at 50 µM in series [1] amounted to 99.8%. Besides, the viability at 50 µM in series [2] stood at 15.6%; in series [5], 9.3%. The IC50 in series [3] turned out to be 2.4 µM; in series [6], 1.6 µM. This molecule also returned an inhibition in series [4] of 94.1%.
As for `C[C@@H]1C[C@H](O)C2=C(CO)C(=O)O/C2=C/[C@@]2(C)CC[C@]1(O)O2`, in series [1], the inhibition at 50 µM was 82.6%. The viability at 50 µM in series [2] came to 121%; in series [5] it was 100%. The figures for the 50% inhibitory concentration (IC50) in series [3] and in series [6] were 24.7 µM and 1.9 µM, respectively. The inhibition in series [4] was 65.6%.
Turning to `CO[C@]12CC[C@](C)(/C=C3/OC(=O)C(CO)=C3[C@@H](O)C[C@H]1C)O2`, the inhibition at 50 µM in series [1] stood at 84.2%. Further, the viability at 50 µM in series [2] was 134%; in series [5], 91.9%. The IC50 in series [3] turned out to be 28.1 µM. Also, the inhibition in series [4] stood at 33.4%. In addition, the inhibition entry in series [7] is “inactive”.
As to `CNC(=N)NCCC[C@H](N)C(=O)O`, the IC50 in series [3] is 25.1 µM.
With `C=C(C)C(=O)O[C@H]1C[C@@H](C)[C@]2(OC)CC[C@](C)(/C=C3/OC(=O)C(COC(C)=O)=C31)O2`, the inhibition at 50 µM in series [1] was found to be 98.8%. In addition, the viability at 50 µM came out at 6.3% in series [2] and 39.1% in series [5]. Further, the results for the IC50 in series [3] and in series [6] were 1.5 µM and 13.6 µM, respectively. The molecule also had an inhibition in series [4] of 94.2%.
As for `C/C=C(\C)C(=O)O[C@H]1C[C@@H](C)[C@]2(OC)CC[C@](C)(/C=C3/OC(=O)C(COC(C)=O)=C31)O2`, the inhibition at 50 µM in series [1] was 99%. Further, the viability at 50 µM was determined as 5.4% in series [2] and 16.5% in series [5]. Also, the half-inhibitory concentration (IC50) in series [3] came to 1.2 µM; in series [6] it was 12.8 µM. For the same molecule, in series [4], the inhibition came to 97.6%.
For `Cc1ccc(S(=O)(=O)/C=C/C#N)cc1`, in series [6], half-maximal inhibition (IC50) was put at 2 µM.
With `Cc1ccc(S(=O)(=O)N[C@@H](Cc2ccccc2)C(=O)CCl)cc1` [TPCK], the half-maximal inhibitory concentration (IC50) in series [6] is 3.8 µM.
Consider `C/C=C(\C)C(=O)O[C@H]1C[C@@H](C)[C@]2(O)CC[C@](C)(/C=C3/OC(=O)C(COC(C)=O)=C31)O2`, for which the inhibition at 50 µM in series [1] was 98%. In addition, the viability at 50 µM in series [2] stood at 31.1%; in series [5], 102%. Also, the concentration for half-maximal inhibition (IC50) in series [3] was determined as 2 µM; in series [6], 0.6 µM. In series [4], this molecule came in with an inhibition of 99.6%.
As to `C/C=C(\C)C(=O)O[C@H]1C[C@@H](C)[C@]2(O)CC[C@](C)(/C=C3/OC(=O)C(CO)=C31)O2` (relative stereo), the inhibition at 50 µM in series [1] is 99.8%. In addition, the viability at 50 µM came to 32.2% in series [2] and 87.6% in series [5]. For the same molecule, the values for the half-maximal inhibitory concentration (IC50) in series [3] and in series [6] were 5.7 µM and 3.1 µM, respectively. In series [4], this molecule displayed an inhibition of 98.6%.
On to `C=C(C)C(=O)O[C@H]1C[C@@H](C)[C@]2(O)CC[C@](C)(/C=C3/OC(=O)C(COC(C)=O)=C31)O2`, for which the inhibition at 50 µM in series [1] was 99.2%. Besides, the viability at 50 µM in series [2] was found to be 31.1%; in series [5] it was 95.1%. Besides, the results for the half-maximal inhibitory concentration (IC50) in series [3] and in series [6] were 6.6 µM and 5.2 µM, respectively. Further, the inhibition in series [4] came to 95.8%.
